{
  "source": "patent US3984531A",
  "about": "“Technetium-99m-tin-monofluorophosphate complex” (The Radiochemical Centre Limited, priority 1973, dated 1976)",
  "key": {"[1]": {"conditions": "skeletal imaging prior to 1971; cited from earlier work"}, "[2]": {"conditions": "compared with stannous chloride"}, "[3]": {"conditions": "monoenergetic; cited from earlier work"}, "[4]": {"conditions": "Subramanian and McAfee, Radiology 1971; cited from earlier work"}, "[5]": {"conditions": "long chain polyphosphate material; cited from earlier work"}},
  "data": [
    {"molecule": "[85Sr]", "note": "[Strontium-85, strontium-85]", "values": [
      {"measurement": "scan performance (in words)", "setting": "[1]", "value": "poor quality scans"}
    ]},
    {"molecule": "[18FH]", "note": "[Fluorine-18, fluorine-18]", "values": [
      {"measurement": "scan performance (in words)", "setting": "[1]", "value": "good agent"}
    ]},
    {"molecule": "Stannous fluoride", "values": [
      {"measurement": "stability to hydrolysis in aqueous solution (in words)", "setting": "[2]", "value": "more stable to hydrolysis in aqueous solution than stannous chloride"}
    ]},
    {"molecule": "[99Tc]", "note": "[technetium-99m]", "values": [
      {"measurement": "gamma emission energy", "setting": "[3]", "value": 140, "unit": "KeV"}
    ]},
    {"molecule": "[87Sr]", "note": "[Strontium-87m, strontium-87m]", "values": [
      {"measurement": "scan performance (in words)", "setting": "[1]", "value": "high blood background"}
    ]},
    {"molecule": "tripolyphosphate", "values": [
      {"measurement": "skeletal uptake / localization (in words)", "setting": "[4]", "value": "good skeletal uptake of activity"},
      {"measurement": "stability with respect to hydrolysis (in words)", "setting": "[5]", "value": "instability of the long chain polyphosphate material with respect to hydrolysis"}
    ]}
  ]
}
